From PubChem BioAssay (NCI) come the findings set out here.

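Compound exposure: 48 hours, 5 concentrations, 96-well plates. TGI: concentration producing complete growth inhibition.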

Some test systems named below: BT-549 breast; RPMI-8226 leukemia; TK-10 renal; DU-145 prostate; A498 renal; HCT-116 colon; K-562 leukemia; UACC-257 melanoma; HL-60(TB) leukemia; SNB-19 CNS; OVCAR-4 ovarian.
Holding throughout (assay): NCI anticancer screen, dose series, 48 h

As for `COc1cc2oc(=O)cc(C)c2cc1O`, the TGI with BT-549 breast, in the assay on RPMI-8226 leukemia, with TK-10 renal, in the assay with DU-145 prostate, in the assay on A498 renal and with HCT-116 colon was more than 100 µM throughout. Moreover, the TGI in the assay on K-562 leukemia, with UACC-257 melanoma, in the assay with HL-60(TB) leukemia, with SNB-19 CNS and in the assay on OVCAR-4 ovarian was more than 100 µM in each case.
Take `CSc1cc(-c2ccccn2)nc(-c2ccccn2)c1`: the TGI is 6.07 µM in the assay with BT-549 breast; more than 100 µM with RPMI-8226 leukemia; 0.75 µM in the assay with TK-10 renal; 26.6 µM in the assay with DU-145 prostate; 2.76 µM with A498 renal; 11.7 µM in the assay with HCT-116 colon. The TGI in the assay with K-562 leukemia was more than 100 µM; with UACC-257 melanoma it was 15.3 µM; in the assay with HL-60(TB) leukemia, 0.89 µM; in the assay with SNB-19 CNS it was more than 50.5 µM; with OVCAR-4 ovarian, 13.2 µM.
As to `Cc1ccc2c(=O)c(C(=O)Nn3c(C)csc3=S)c[nH]c2n1`, the TGI in the assay with BT-549 breast, with RPMI-8226 leukemia, in the assay on TK-10 renal, in the assay on DU-145 prostate, with A498 renal and in the assay on HCT-116 colon was more than 100 µM each time. Besides, the TGI in the assay with K-562 leukemia, in the assay with UACC-257 melanoma, in the assay with HL-60(TB) leukemia, in the assay on SNB-19 CNS and in the assay on OVCAR-4 ovarian was more than 100 µM throughout.
For the molecule `CCCCCc1nnc(NS(=O)(=O)c2ccc(NC(=O)OCC(C)C)cc2)s1`, the TGI in the assay on BT-549 breast is more than 100 µM; in the assay on RPMI-8226 leukemia it was 41.4 µM; in the assay on TK-10 renal it was more than 100 µM; in the assay on DU-145 prostate, more than 100 µM; in the assay with A498 renal, 24.6 µM; with HCT-116 colon, 53.7 µM. Besides, the TGI in the assay with K-562 leukemia is 60.9 µM; in the assay on UACC-257 melanoma, more than 100 µM; in the assay on HL-60(TB) leukemia, more than 100 µM; in the assay on SNB-19 CNS it was more than 100 µM; in the assay on OVCAR-4 ovarian, 56.5 µM.
For the molecule `C(/Cc1ccc2c(c1)OCO2)=N\NC1=NCCN1`, the TGI in the assay with BT-549 breast is more than 100 µM; with RPMI-8226 leukemia it was more than 100 µM; in the assay on TK-10 renal it was more than 100 µM; in the assay on DU-145 prostate it was more than 100 µM; with A498 renal, 70.5 µM; in the assay with HCT-116 colon, more than 100 µM. Moreover, the TGI with K-562 leukemia, with UACC-257 melanoma, in the assay with HL-60(TB) leukemia, in the assay with SNB-19 CNS and in the assay on OVCAR-4 ovarian was more than 100 µM throughout.
Regarding `COC(=O)[C@H]1NC(=O)CCSSC1(C)C`, the TGI in the assay on BT-549 breast, in the assay with RPMI-8226 leukemia, in the assay with TK-10 renal, in the assay with DU-145 prostate, in the assay on A498 renal and in the assay on HCT-116 colon was more than 100 µM in each case. Besides, the TGI in the assay with K-562 leukemia, with UACC-257 melanoma, in the assay with HL-60(TB) leukemia, in the assay with SNB-19 CNS and in the assay with OVCAR-4 ovarian was more than 100 µM each time.
On to `Cc1ccc(-n2cc(-c3ccc(Cl)cc3)c3c(N/N=C4\SCC(=O)N4C)ncnc32)cc1`, for which the TGI in the assay on BT-549 breast is 82 µM; in the assay on RPMI-8226 leukemia, more than 100 µM; in the assay with TK-10 renal it was 8.18 µM; in the assay on DU-145 prostate, more than 100 µM; with A498 renal, 31.3 µM; in the assay on HCT-116 colon, 38.4 µM. The TGI with K-562 leukemia is more than 100 µM; in the assay with UACC-257 melanoma it was 27.1 µM; in the assay on HL-60(TB) leukemia, more than 100 µM; in the assay with SNB-19 CNS it was 63.1 µM; with OVCAR-4 ovarian it was 8.03 µM.
For the molecule `c1ccc(CN[C@]23C4C5CC6C7C5C2C7[C@@](NCc2ccccc2)(C64)N3Cc2ccccc2)cc1` (stereo partly specified), the TGI with BT-549 breast, in the assay on RPMI-8226 leukemia, with TK-10 renal, with DU-145 prostate, in the assay on A498 renal and in the assay with HCT-116 colon was more than 100 µM each time. Besides, the TGI in the assay on K-562 leukemia, in the assay with UACC-257 melanoma, in the assay with HL-60(TB) leukemia, with SNB-19 CNS and in the assay with OVCAR-4 ovarian was more than 100 µM in each case.
Take `O=c1sc2c(s1)-c1sc(=O)sc1SS2`: the TGI with BT-549 breast is more than 100 µM; with RPMI-8226 leukemia it was more than 100 µM; in the assay on TK-10 renal, more than 79.4 µM; in the assay with DU-145 prostate, more than 89.8 µM; in the assay with A498 renal, more than 62.2 µM; in the assay with HCT-116 colon, more than 100 µM. The TGI in the assay with K-562 leukemia, in the assay on UACC-257 melanoma, in the assay with HL-60(TB) leukemia, in the assay on SNB-19 CNS and in the assay on OVCAR-4 ovarian was more than 100 µM throughout.
With `COC(=O)C1=C(OC(=O)/C=C/c2ccccc2)C(C(=O)OC)[C@@]2(O)[C@@H](C(=O)OC)[C@H](C)C[C@@H]1[C@@H]2C(=O)OC` (stereo partly specified), the TGI with BT-549 breast was 56.1 µM; with RPMI-8226 leukemia, more than 100 µM; in the assay with TK-10 renal, more than 100 µM; with DU-145 prostate it was more than 100 µM; in the assay on A498 renal, 36.7 µM; with HCT-116 colon it was 88.4 µM. The TGI is more than 100 µM with K-562 leukemia; 90.9 µM with UACC-257 melanoma; more than 100 µM with HL-60(TB) leukemia; more than 100 µM in the assay with SNB-19 CNS; more than 100 µM with OVCAR-4 ovarian.
For the molecule `C=C1c2nc3ccccc3n2C=C(c2ccc(C)cc2)N1c1ccc(C)cc1`, the TGI is more than 100 µM in the assay with BT-549 breast; more than 89.8 µM in the assay with RPMI-8226 leukemia; more than 100 µM in the assay on TK-10 renal; more than 100 µM in the assay with DU-145 prostate; more than 100 µM in the assay on A498 renal; more than 100 µM with HCT-116 colon. Further, the TGI in the assay on K-562 leukemia is more than 100 µM; with UACC-257 melanoma, more than 100 µM; with HL-60(TB) leukemia, 64.4 µM; with SNB-19 CNS, more than 100 µM; in the assay with OVCAR-4 ovarian it was more than 100 µM.
